Measured values published in patent US5840684A, “Glycopeptide antibiotic derivatives” (Eli Lilly and Company, priority 1995, dated 1998).
Converted amounts (≈) assume the structure as drawn.

Columns and labels:
[1] = test system: Staphylococcus aureus S13E; format: cell-based
Method: (§1) The MIC's were determined using a standard broth micro-dilution assay.

[2] = test system: Staphylococcus aureus SA1199B; format: cell-based
Method: as §1

[3] = test system: Entercoccus faecium 180-1; assay: broth micro-dilution MIC; format: cell-based
Method: as §1

Entercoccus faecium 276 = assay: broth micro-dilution MIC; format: cell-based
Method: as §1

[4] = test system: Staphylococcus aureus 446; assay: broth micro-dilution MIC; format: cell-based
Method: as §1

[5] = test system: Staphylococcus aureus 447; assay: broth micro-dilution MIC; format: cell-based
Method: as §1

[6] = test system: Staphylococcus aureus 491; assay: broth micro-dilution MIC; format: cell-based
Method: as §1

[7] = test system: Staphylococcus aureus SA1199A; assay: broth micro-dilution MIC; format: cell-based
Method: as §1

[8] = test system: Staphylococcus aureus X778; assay: broth micro-dilution MIC; format: cell-based
Method: as §1

[9] = test system: Streptococcus pyogenes C203; assay: broth micro-dilution MIC; format: cell-based
Method: as §1

Entercoccus faecium 180 = assay: broth micro-dilution MIC; format: cell-based; settings: Entercoccus faecium 180
Method: (§2) The formula I compounds have in vitro and in vivo activity against Gram-positive pathogenic bacteria. The MIC's were determined using a standard broth micro-dilution assay.

Entercoccus faecium 2041 = assay: broth micro-dilution MIC; format: cell-based; settings: Entercoccus faecium 2041
Method: as §2

[10] = test system: Enterococcus gallinarum 245; assay: broth micro-dilution MIC; format: cell-based; settings: Enterococcus gallinarum 245
Method: as §2

[11] = test system: Staphylococcus epidermidis 270; assay: broth micro-dilution MIC; format: cell-based
Method: as §2

[12] = test system: Staphylococcus haemolyticus 105; assay: broth micro-dilution MIC; format: cell-based
Method: as §2

[13] = test system: Staphylococcus haemolyticus 415; assay: broth micro-dilution MIC; format: cell-based
Method: as §2

[14] = test system: Streptococcus pneumoniae P1; assay: broth micro-dilution MIC; format: cell-based
Method: as §2

[15] = test system: vancomycin-resistant enterococci; assay: broth micro-dilution, mean geometric MIC; format: cell-based, Enterococcus faecium and Enterococcus faecalis; settings: enterococci, 24-hour incubation
[16] = test system: vancomycin-susceptible enterococci; assay: broth micro-dilution, mean geometric MIC; format: cell-based, Enterococcus faecium and Enterococcus faecalis; settings: enterococci, 24-hour incubation
[17] = test system: Staphylococcus aureus SA1199; assay: broth micro-dilution MIC; format: cell-based
Method: as §1

[18] = test system: Staphylococcus aureus 489; assay: broth micro-dilution MIC; format: cell-based
Method: as §1

[19] = test system: Staphylococcus aureus X400; assay: broth micro-dilution MIC; format: cell-based
Method: as §1

SMILES	MIC [1]	MIC [2]	MIC [3]	MIC (Entercoccus faecium 276)	MIC [4]	MIC [5]	MIC [6]	MIC [7]	MIC [8]	MIC [9]	MIC (Entercoccus faecium 180)	MIC (Entercoccus faecium 2041)	MIC [10]	MIC [11]	MIC [12]	MIC [13]	MIC [14]	mean geometric MIC, Vancomycin Resistant Strains [15]	mean geometric MIC, Vancomycin Sensitive Strains [16]	MIC [17]	other results
CNC(CC(C)C)C(=O)NC1C(=O)NC(CC(N)=O)C(=O)NC2C(=O)NC3C(=O)NC(C(=O)NC(C(=O)O)c4cc(O)cc(O)c4-c4cc3ccc4O)C(OC3CC(C)(N)C(O)C(C)O3)c3ccc(c(Cl)c3)Oc3cc2cc(c3OC2OC(CO)C(O)C(O)C2OC2CC(C)(NCc3ccc4c(c3)CCO4)C(O)C(C)O2)Oc2ccc(cc2Cl)C1O (centres unmarked) [Compound 82]	≤ 0.06 µg/mL	1 µg/mL (≈ 0.58 µM)	0.125 µg/mL (≈ 0.0725 µM)	≤ 0.06 µg/mL	2 µg/mL (≈ 1.16 µM)	4 µg/mL (≈ 2.32 µM)	1 µg/mL (≈ 0.58 µM)	0.5 µg/mL (≈ 0.29 µM)	0.5 µg/mL (≈ 0.29 µM)	≤ 0.06 µg/mL	2 µg/mL (≈ 1.16 µM)	0.5 µg/mL (≈ 0.29 µM)	0.125 µg/mL (≈ 0.0725 µM)	4 µg/mL (≈ 2.32 µM)	8 µg/mL (≈ 4.64 µM)	8 µg/mL (≈ 4.64 µM)	≤ 0.06 µg/mL	22 µg/mL	0.50 µg/mL	–	–
CNC(CC(C)C)C(=O)NC1C(=O)NC(CC(N)=O)C(=O)NC2C(=O)NC3C(=O)NC(C(=O)NC(C(=O)O)c4cc(O)cc(O)c4-c4cc3ccc4O)C(OC3CC(C)(N)C(O)C(C)O3)c3ccc(c(Cl)c3)Oc3cc2cc(c3OC2OC(CO)C(O)C(O)C2OC2CC(C)(NCc3cc(C)cc(C)c3)C(O)C(C)O2)Oc2ccc(cc2Cl)C1O (centres unmarked) [Compound 89]	–	1 µg/mL (≈ 0.585 µM)	≤ 0.06 µg/mL	≤ 0.06 µg/mL	0.5 µg/mL (≈ 0.292 µM)	1 µg/mL (≈ 0.585 µM)	1 µg/mL (≈ 0.585 µM)	≤ 0.06 µg/mL	–	≤ 0.06 µg/mL	0.125 µg/mL (≈ 0.0731 µM)	≤ 0.06 µg/mL	≤ 0.06 µg/mL	1 µg/mL (≈ 0.585 µM)	1 µg/mL (≈ 0.585 µM)	2 µg/mL (≈ 1.17 µM)	≤ 0.06 µg/mL	11 µg/mL	0.44 µg/mL	0.5 µg/mL (≈ 0.292 µM)	–
CNC(CC(C)C)C(=O)NC1C(=O)NC(CC(N)=O)C(=O)NC2C(=O)NC3C(=O)NC(C(=O)NC(C(=O)O)c4cc(O)cc(O)c4-c4cc3ccc4O)C(OC3CC(C)(N)C(O)C(C)O3)c3ccc(c(Cl)c3)Oc3cc2cc(c3OC2OC(CO)C(O)C(O)C2OC2CC(C)(NCc3ccc(O)cc3)C(O)C(C)O2)Oc2ccc(cc2Cl)C1O (centres unmarked) [Compound 136]	≤ 0.06 µg/mL	≤ 0.06 µg/mL	≤ 0.06 µg/mL	≤ 0.06 µg/mL	≤ 0.06 µg/mL	2 µg/mL (≈ 1.18 µM)	–	≤ 0.06 µg/mL	≤ 0.06 µg/mL	≤ 0.06 µg/mL	2 µg/mL (≈ 1.18 µM)	≤ 0.06 µg/mL	4 µg/mL (≈ 2.35 µM)	1 µg/mL (≈ 0.589 µM)	2 µg/mL (≈ 1.18 µM)	4 µg/mL (≈ 2.35 µM)	≤ 0.06 µg/mL	23 µg/mL	0.76 µg/mL	≤ 0.06 µg/mL	MIC [18]: ≤ 0.06 µg/mL; MIC [19]: ≤ 0.06 µg/mL
CNC(CC(C)C)C(=O)NC1C(=O)NC(CC(N)=O)C(=O)NC2C(=O)NC3C(=O)NC(C(=O)NC(C(=O)O)c4cc(O)cc(O)c4-c4cc3ccc4O)C(OC3CC(C)(N)C(O)C(C)O3)c3ccc(c(Cl)c3)Oc3cc2cc(c3OC2OC(CO)C(O)C(O)C2OC2CC(C)(NCC34CC5CC(CC(C5)C3)C4)C(O)C(C)O2)Oc2ccc(cc2Cl)C1O (centres unmarked) [Compound 141]	–	2 µg/mL (≈ 1.15 µM)	≤ 0.06 µg/mL	0.5 µg/mL (≈ 0.287 µM)	2 µg/mL (≈ 1.15 µM)	1 µg/mL (≈ 0.574 µM)	0.5 µg/mL (≈ 0.287 µM)	≤ 0.06 µg/mL	0.5 µg/mL (≈ 0.287 µM)	≤ 0.06 µg/mL	0.5 µg/mL (≈ 0.287 µM)	≤ 0.06 µg/mL	4 µg/mL (≈ 2.3 µM)	1 µg/mL (≈ 0.574 µM)	1 µg/mL (≈ 0.574 µM)	4 µg/mL (≈ 2.3 µM)	≤ 0.06 µg/mL	8.0 µg/mL	–	–	–
CNC(CC(C)C)C(=O)NC1C(=O)NC(CC(N)=O)C(=O)NC2C(=O)NC3C(=O)NC(C(=O)NC(C(=O)O)c4cc(O)cc(O)c4-c4cc3ccc4O)C(OC3CC(C)(N)C(O)C(C)O3)c3ccc(c(Cl)c3)Oc3cc2cc(c3OC2OC(CO)C(O)C(O)C2OC2CC(C)(NCc3ccc([S+]([O-])c4ccccc4)cc3)C(O)C(C)O2)Oc2ccc(cc2Cl)C1O (centres unmarked) [Compound 159]	1 µg/mL (≈ 0.553 µM)	≤ 0.06 µg/mL	≤ 0.06 µg/mL	–	0.5 µg/mL (≈ 0.277 µM)	4 µg/mL (≈ 2.21 µM)	2 µg/mL (≈ 1.11 µM)	≤ 0.06 µg/mL	2 µg/mL (≈ 1.11 µM)	≤ 0.06 µg/mL	2 µg/mL (≈ 1.11 µM)	–	8 µg/mL (≈ 4.43 µM)	0.5 µg/mL (≈ 0.277 µM)	16 µg/mL (≈ 8.86 µM)	8 µg/mL (≈ 4.43 µM)	≤ 0.06 µg/mL	27 µg/mL	0.50 µg/mL	–	MIC [19]: 4 µg/mL (≈ 2.21 µM)
CNC(CC(C)C)C(=O)NC1C(=O)NC(CC(N)=O)C(=O)NC2C(=O)NC3C(=O)NC(C(=O)NC(C(=O)O)c4cc(O)cc(O)c4-c4cc3ccc4O)C(OC3CC(C)(N)C(O)C(C)O3)c3ccc(c(Cl)c3)Oc3cc2cc(c3OC2OC(CO)C(O)C(O)C2OC2CC(C)(NCc3ccc(NC(=O)c4ccc(F)cc4)cc3)C(O)C(C)O2)Oc2ccc(cc2Cl)C1O (centres unmarked) [Compound 193]	≤ 0.06 µg/mL	–	≤ 0.06 µg/mL	≤ 0.06 µg/mL	0.5 µg/mL (≈ 0.275 µM)	≤ 0.06 µg/mL	≤ 0.06 µg/mL	≤ 0.06 µg/mL	≤ 0.06 µg/mL	≤ 0.06 µg/mL	≤ 0.06 µg/mL	≤ 0.06 µg/mL	1 µg/mL (≈ 0.55 µM)	–	0.5 µg/mL (≈ 0.275 µM)	1 µg/mL (≈ 0.55 µM)	≤ 0.06 µg/mL	2 µg/mL	0.072 µg/mL	–	–
CNC(CC(C)C)C(=O)NC1C(=O)NC(CC(N)=O)C(=O)NC2C(=O)NC3C(=O)NC(C(=O)NC(C(=O)O)c4cc(O)cc(O)c4-c4cc3ccc4O)C(OC3CC(C)(N)C(O)C(C)O3)c3ccc(c(Cl)c3)Oc3cc2cc(c3OC2OC(CO)C(O)C(O)C2OC2CC(C)(NCc3sccc3-c3cccs3)C(O)C(C)O2)Oc2ccc(cc2Cl)C1O (centres unmarked) [Compound 238]	0.125 µg/mL (≈ 0.0706 µM)	0.5 µg/mL (≈ 0.282 µM)	≤ 0.06 µg/mL	≤ 0.06 µg/mL	1 µg/mL (≈ 0.565 µM)	0.5 µg/mL (≈ 0.282 µM)	–	≤ 0.06 µg/mL	0.5 µg/mL (≈ 0.282 µM)	≤ 0.06 µg/mL	0.125 µg/mL (≈ 0.0706 µM)	≤ 0.06 µg/mL	≤ 0.06 µg/mL	0.5 µg/mL (≈ 0.282 µM)	0.5 µg/mL (≈ 0.282 µM)	2 µg/mL (≈ 1.13 µM)	≤ 0.06 µg/mL	1.4 µg/mL	0.14 µg/mL	0.5 µg/mL (≈ 0.282 µM)	MIC [18]: 0.5 µg/mL (≈ 0.282 µM); MIC [19]: 1 µg/mL (≈ 0.565 µM)
